Measured values from patent US6545008B1, “Pyrimidine derivatives and processes for the preparation thereof” (Yuhan Corporation, priority 1998, dated 2003).
Where a name gives a salt, the structure may show the parent alone.

Molecular target: T1, proton pump (H+/K+-ATPase) (UniProt P19156)
T1 construct: The gastric vesicle as an enzyme source was prepared by the same method as in the Experiment 1—1 of WO 94/14795
Test: Inhibition of proton pump (H+/K+-ATPase) activity, gastric vesicle enzyme source
Format: biochemical
Details: pH 6.4, 37° C., 30 min preincubation, linear regression over 5 concentrations, read-out: IC50, inhibitory effects on proton pump (H+/K+-ATPase) activity
Description: Test Example 1: Inhibition of proton pump (H^+/K^+-ATPase) activity
The gastric vesicle as an enzyme source was prepared by the same method as in the Experiment 1—1 of WO 94/14795. Further, the inhibitory effect of proton pump activity was measured by the same method as in Experiment 1-2 of WO 94/14795.
Namely, the proton pump activity stimulated by Mg^++ was used as a negative control group, and the activity stimulated by Mg^++ and K^+ was used as a positive control group. Omeprazole was used as the control compound.
Test tubes were divided into 4 groups: Group 1 as negative control group (n=3), Group 2 as positive control group (n=3), Group 3 (n=5×2) to be administered with the compound of the present invention and Group 4 (n=5×2) to be administered with the control compound.
The inhibitory effects of Group 3 and 4 on proton pump activity were measured by employing the compounds prepared in Examples and omeprazole, respectively, each of which was dissolved in dimethyl sulfoxide (DMSO) at 5 different concentrations.
To each of Groups 1, 2, 3, and 4 was added 0.1 ml of magnesium chloride (4 mM) dissolved in 40 mM Tris-HCl buffer (pH 6.4) and 100 μg of enzyme source. The 50 μl of potassium chloride (60 mM) and 50 μl of ammonium chloride (6 mM) dissolved in 40 mM Tris-HCl buffer (pH 6.4) were added to all groups except for Group 1.
10 μl of dimethyl sulfoxide was added to each of Group 1 and 2; and to Group 3 was added […] of dimethyl sulfoxide solution prepared by dissolving compound of Example at 5 different concentrations (n=5×2). To Group 4, was added 10 μl of the solution prepared by dissolving omeprazole in dimethyl sulfoxide at 5 different concentrations (40, 20, 10, 5, 2.5 μM) (n=5×2). […] Tris-HCl buffer (pH 6.4) was added thereto so as to make the total volume 400 μl.
Thereafter the test tubes of each Group were placed at 37° C. for 30 minutes for the preincubation. ATP solution (6.6 mM) was added until the total volume became 500 μl. After the reaction was carried out at 37° C. for 30 minutes, 25% cold trichloroactic acid was added to terminate the enzyme reaction. The released inorganic phosphorous was measured by an automatic analyzer (Express 550, Corning).
The difference between Group 1 and Group 2 represents the proton pump activity activated by K^+ only. The IC50s of Group 3 and 4 were calculated using the Linear Regression method. The concentrations of the test compounds inhibiting 50% of the proton pump activity are represented as IC50 in Table 1.

SMILES	IC50
Cc1nc(Nc2cccc(F)c2)nc(N2CCc3ccc(F)cc3C2C)c1C (centres unmarked) [Example 12, 5,6-dimethyl-2-(3-fluorophenylamino)4-(1-methyl-7-fluoro-1,2,3,4-tetrahydroisoquinolin-2-yl)pyrimidine hydrochloride]	3200 nM
Cc1ccccc1Nc1nc(C)c(C)c(N2CCc3ccc(F)cc3C2C)n1 (centres unmarked) [Example 5, 5,6-dimethyl-2-(2-methylphenylamino)-4-(1-methyl-7-fluoro-1,2,3,4-tetrahydroisoquinolin-2-yl)pyrimidine hydrochloride]	600 nM
Cc1nc(Nc2ccc(F)cc2F)nc(N2CCc3ccc(F)cc3C2C)c1C (centres unmarked) [Example 8, 5,6-dimethyl-2-(2,4-difluorophenylamino)-4-(1-methyl-7-fluoro-1,2,3,4-tetrahydroisoquinolin-2-yl)pyrimidine hydrochloride]	700 nM
Cc1nc(Nc2ccc(F)cc2)nc(N2CCc3ccccc3C2C)c1CF (centres unmarked) [Example 25, 5-fluoromethyl-6-methyl-2-(4-fluorophenylamino)-4-(1-methyl-1,2,3,4-tetrahydroisoquinolin-2-yl)-pyrimidine hydrochloride]	4100 nM
Cc1c(CF)nc(Nc2ccc(F)cc2)nc1N1CCc2ccccc2C1C (centres unmarked) [Example 24, 5-methyl-6-fluoromethyl-2-(4-fluorophenylamino)-4-(1-methyl-1,2,3,4-tetrahydroisoquinolin-2-yl)-pyrimidine hydrochloride]	900 nM
COc1ccc2[nH]c([S+]([O-])Cc3ncc(C)c(OC)c3C)nc2c1 (centres unmarked) [Omeprazole, reference compound]	11500 nM
Cc1nc(Nc2ccc(F)cc2)nc(N2CCc3cc(F)ccc3C2C)c1C (centres unmarked) [Example 14, 5,6-dimethyl-2-(4-fluorophenylamino)-4-(1-methyl-6-fluoro-1,2,3,4-tetrahydroisoquinolin-2-yl)pyrimidine hydrochloride]	700 nM
Cc1nc(Nc2ccc(F)cc2)nc(N2CCc3ccccc3C2CF)c1C (centres unmarked) [Example 26, 5,6-dimethyl-2-(4-fluorophenylamino)-4-(1-fluoromethyl-1,2,3,4-tetrahydroisoquinolin-2-yl)pyrimidine hydrochloride]	3700 nM
Cc1nc(Nc2ccccc2F)nc(N2CCc3ccc(F)cc3C2C)c1C (centres unmarked) [Example 11, 5,6-dimethyl-2-(2-fluorophenylamino)-4-(1-methyl-7-fluoro-1,2,3,4-tetrahydroisoquinolin-2-yl)pyrimidine hydrochloride]	1900 nM
Cc1nc(Nc2ccc(Cl)cc2)nc(N2CCc3ccc(F)cc3C2C)c1C (centres unmarked) [Example 9, 5,6-dimethyl-2-(4-chlorophenylamino)-4-(1-methyl-7-fluoro-1,2,3,4-tetrahydroisoquinolin-2-yl)pyrimidine hydrochloride]	900 nM
Cc1cc(F)ccc1Nc1nc(C)c(C)c(N2CCc3cc(F)ccc3C2C)n1 (centres unmarked) [Example 17, 5,6-dimethyl-2-(2-methyl-4-fluorophenylamino)-4-(1-methyl-6-fluoro-1,2,3,4-tetrahydroisoquinolin-2-yl)pyrimidine hydrochloride]	200 nM
Cc1nc(Nc2ccc(F)c(F)c2)nc(N2CCc3ccc(F)cc3C2C)c1C (centres unmarked) [Example 7, 5,6-dimethyl-2-(3,4-difluorophenylamino)-4-(1-methyl-7-fluoro-1,2,3,4-tetrahydroisoquinolin-2-yl)pyrimidine hydrochloride]	2600 nM
Cc1nc(Nc2ccc(F)cc2F)nc(N2CCc3c(Cl)cccc3C2C)c1C (centres unmarked) [Example 39, 5,6-dimethyl-2-(2,4-difluorophenylamino)-4-(1-methyl-5-chloro-1,2,3,4-tetrahydroisoquinolin-2-yl)pyrimidine hydrochloride]	900 nM
Cc1nc(Nc2ccc(F)cc2F)nc(N2CCc3ccccc3C2C)c1C (centres unmarked) [Example 2, 5,6-dimethyl-2-(2,4-difluorophenylamino)-4-(1-methyl-1,2,3,4-tetrahydroisoquinolin-2-yl)pyrimidine hydrochloride]	3800 nM
Cc1nc(Nc2ccc(F)c(F)c2)nc(N2CCc3ccccc3C2C)c1C (centres unmarked) [Example 1, 5,6-dimethyl-2-(3,4-difluorophenylamino)-4-(1-methyl-1,2,3,4-tetrahydroisoquinolin-2-yl)pyrimidine hydrochloride]	1600 nM
Cc1nc(Nc2ccc(F)cc2F)nc(N2CCc3cc(F)ccc3C2C)c1C (centres unmarked) [Example 19, 5,6-dimethyl-2-(2,4-difluorophenylamino)-4-(1-methyl-6-fluoro-1,2,3,4,-tetrahydroisoquinolin-2-yl)pyrimidine hydrochloride]	1000 nM
Cc1nc(Nc2ccc(Cl)cc2)nc(N2CCc3cc(F)ccc3C2C)c1C (centres unmarked) [Example 20, 5,6-dimethyl-2-(4-chlorophenylamino)4-(1-methyl-6-fluoro-1,2,3,4-tetrahydroisoquinolin-2-yl)pyrimidine hydrochloride]	1200 nM
Cc1nc(Nc2ccccc2)nc(N2CCc3ccc(F)cc3C2C)c1C (centres unmarked) [Example 4, 5,6-dimethyl-2-phenylamino-4-(1-methyl-7-fluoro-1,2,3,4-tetrahydroisoquinolin-2-yl)pyrimidine hydrochloride]	1000 nM
Cc1cc(F)ccc1Nc1nc(C)c(C)c(N2CCc3ccc(F)cc3C2C)n1 (centres unmarked) [Example 6, 5,6-dimethyl-2-(2-methyl-4-fluorophenylamino)-4-(1-methyl-7-fluoro-1,2,3,4-tetrahydroisoquinolin-2-yl)pyrimidine hydrochloride]	300 nM
Cc1nc(Nc2ccc(F)cc2)nc(N2CCc3c(Cl)cccc3C2C)c1C (centres unmarked) [Example 35, 5,6-dimethyl-2-(4-fluorophenylamino)-4-(1-methyl-5-chloro-1,2,3,4-tetrahydroisoquinolin-2-yl)pyrimidine hydrochloride]	900 nM
